pKi: −log10 of the molar value. Positions of bridges follow the written chain, without caps; N, C: chain ends. Residues, ends and D or L forms follow the SMILES beside them.
Assays:
Prothrombin = Prothrombin (Bos taurus, UniProt P00735); assay: Enzyme Inhibition Assay; conditions: pH 8.5; 22 °C
Protocol: (§1) The enzyme reaction was initiated by adding fluorescence peptide substrate to reaction mixture containing enzyme and test compounds. […] Hydrolysis rates were recorded in presence of six to seven different concentrations of inhibitor.

[1] = biological target: T1, Suppressor of tumorigenicity 14 protein (Homo sapiens, UniProt Q9Y5Y6); assay: Enzyme Inhibition Assay; conditions: pH 8.5; 22 °C
T1 sequence (Q9Y5Y6 whole entry): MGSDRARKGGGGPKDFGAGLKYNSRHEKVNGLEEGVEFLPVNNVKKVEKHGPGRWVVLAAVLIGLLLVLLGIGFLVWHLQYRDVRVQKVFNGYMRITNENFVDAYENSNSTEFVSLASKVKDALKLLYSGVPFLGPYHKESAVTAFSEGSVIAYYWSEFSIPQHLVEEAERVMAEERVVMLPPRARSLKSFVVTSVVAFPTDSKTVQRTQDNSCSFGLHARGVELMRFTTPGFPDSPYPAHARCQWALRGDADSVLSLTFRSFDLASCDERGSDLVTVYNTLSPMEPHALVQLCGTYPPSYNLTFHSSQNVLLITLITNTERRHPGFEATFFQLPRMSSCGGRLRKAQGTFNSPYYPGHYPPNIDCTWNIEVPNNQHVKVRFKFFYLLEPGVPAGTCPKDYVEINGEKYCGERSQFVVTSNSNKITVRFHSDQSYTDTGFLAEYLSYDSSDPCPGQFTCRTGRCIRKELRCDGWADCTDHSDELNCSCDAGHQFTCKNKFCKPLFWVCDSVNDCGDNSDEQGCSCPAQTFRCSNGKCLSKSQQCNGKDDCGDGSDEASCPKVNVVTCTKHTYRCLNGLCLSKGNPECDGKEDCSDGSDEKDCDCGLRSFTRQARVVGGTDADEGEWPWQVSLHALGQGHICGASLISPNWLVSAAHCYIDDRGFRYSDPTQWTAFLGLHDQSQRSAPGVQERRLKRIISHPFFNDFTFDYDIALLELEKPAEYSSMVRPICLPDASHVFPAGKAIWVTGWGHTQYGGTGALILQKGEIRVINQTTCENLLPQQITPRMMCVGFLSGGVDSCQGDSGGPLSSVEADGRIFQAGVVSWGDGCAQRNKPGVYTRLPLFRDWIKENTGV
Protocol: as §1

pKi (Prothrombin) | pKi [1] | Compound
3.79 | 4.05 | CC[C@H](C)[C@@H]1NC(=O)[C@@H]2CCCN2C(=O)[C@@H]2CCCN2C(=O)[C@H]([C@@H](C)CC)NC(=O)[C@H](CO)NC(=O)[C@H](CCCCN)NC(=O)[C@H]([C@@H](C)O)NC(=O)[C@@H]2CSSC[C@H](NC1=O)C(=O)N[C@@H](Cc1ccccc1)C(=O)N1CCC[C@H]1C(=O)N[C@@H](CC(=O)O)C(=O)NCC(=O)N[C@@H](Cc1ccc(N=C(N)N)cc1)C(=O)N2 [2-[(1R,4S,7S,13S,19S,22S,25S,28S,31R,34S,40S,43S,49S)-25-(4-aminobutyl)-49-benzyl-4,19-bis[(2S)-butan-2-yl]-34-[(4-carbamimidamidophenyl)methyl]-28-[(1R)-1-hydroxyethyl]-22-(hydroxymethyl)-3,6,12,18,21,24,27,30,33,36,39,42,48,51-tetradecaoxo-53,54-dithia-2,5,11,17,20,23,26,29,32,35,38,41,47,50-tetradecaazapentacyclo[29.20.4.0^{7,11}.0^{13,17}.0^{43,47}]pentapentacontan-40-yl]acetic acid]
< 2.60 | 5.63 | CC[C@H](C)[C@@H]1NC(=O)[C@H](CO)NC(=O)[C@H](CCCCN)NC(=O)[C@H]([C@@H](C)O)NC(=O)[C@@H]2CSSC[C@H](NC(=O)[C@H](CCC(N)=O)NC(=O)[C@@H]3CCCN3C(=O)[C@@H]3CCCN3C1=O)C(=O)N[C@@H](Cc1ccccc1)C(=O)N1CCC[C@H]1C(=O)N[C@@H](CC(=O)O)C(=O)NCC(=O)N[C@@H](CCCN=C(N)N)C(=O)N2 [2-[(1R,4S,7S,13S,19S,22S,25S,28S,31R,34S,40S,43S,49S)-25-(4-aminobutyl)-49-benzyl-19-[(2S)-butan-2-yl]-34-(3-carbamimidamidopropyl)-4-(2-carbamoylethyl)-28-[(1R)-1-hydroxyethyl]-22-(hydroxymethyl)-3,6,12,18,21,24,27,30,33,36,39,42,48,51-tetradecaoxo-53,54-dithia-2,5,11,17,20,23,26,29,32,35,38,41,47,50-tetradecaazapentacyclo[29.20.4.0^{7,11}.0^{13,17}.0^{43,47}]pentapentacontan-40-yl]acetic acid] (cyclo(CFPDGRCTKSIPPQ); disulfide 1-7)
4.34 | 4.55 | CC[C@H](C)[C@@H]1NC(=O)[C@@H]2CCCN2C(=O)[C@@H]2CCCN2C(=O)[C@H]([C@@H](C)CC)NC(=O)[C@H](CO)NC(=O)[C@H](CCCCCN)NC(=O)[C@H]([C@@H](C)O)NC(=O)[C@@H]2CSSC[C@H](NC1=O)C(=O)N[C@@H](Cc1ccccc1)C(=O)N1CCC[C@H]1C(=O)N[C@@H](CC(=O)O)C(=O)NCC(=O)N[C@@H](CCCN=C(N)N)C(=O)N2 [2-[(1R,4S,7S,13S,19S,22S,25S,28S,31R,34S,40S,43S,49S)-25-(5-aminopentyl)-49-benzyl-4,19-bis[(2S)-butan-2-yl]-34-(3-carbamimidamidopropyl)-28-[(1R)-1-hydroxyethyl]-22-(hydroxymethyl)-3,6,12,18,21,24,27,30,33,36,39,42,48,51-tetradecaoxo-53,54-dithia-2,5,11,17,20,23,26,29,32,35,38,41,47,50-tetradecaazapentacyclo[29.20.4.0^{7,11}.0^{13,17}.0^{43,47}]pentapentacontan-40-yl]acetic acid]
